Read-outs that look alike come from different tables or passages of the source.
What was measured:
SHBG = target: T1, SHBG (Homo sapiens, UniProt P04278); conditions: cited from earlier work
T1 sequence (P04278 30-402): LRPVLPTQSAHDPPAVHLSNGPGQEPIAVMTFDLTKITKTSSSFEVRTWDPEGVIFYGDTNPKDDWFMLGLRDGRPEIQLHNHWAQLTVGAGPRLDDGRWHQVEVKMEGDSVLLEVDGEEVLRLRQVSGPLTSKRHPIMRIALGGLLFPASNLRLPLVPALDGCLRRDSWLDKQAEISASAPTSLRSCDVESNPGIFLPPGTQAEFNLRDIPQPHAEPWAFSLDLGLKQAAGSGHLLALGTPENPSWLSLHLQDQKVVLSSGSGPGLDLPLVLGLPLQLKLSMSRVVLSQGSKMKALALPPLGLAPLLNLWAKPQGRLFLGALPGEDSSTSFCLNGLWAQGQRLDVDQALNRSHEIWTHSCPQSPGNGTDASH

[1] = Plasma levels and tolerability of estetrol after daily oral administration in female patients; format: in vivo, human; conditions: for Trough plasma level: average of Day 7 and Day 14; for Cmax: human, plasma, read-out: Cmax plasma level
Method: For each group dosed at 2, 10, 20 and 40 mg estetrol daily (oral administration), 9 to 10 female patients were tested for their plasma content in estetrol at Day 7 and at Day 14. For each dose group, the average trough level of all patients across both days was calculated.

[2] = system: ER+ locally advanced and/or metastatic breast cancer; assay: Phase I/IIa dose-escalation study of E4 in advanced breast cancer (patient of Example 4); format: in vivo, human; conditions: 20 mg E4 per day oral, 12 weeks
Method: An open-label, phase I/11a trial, dose-escalation study with a 3+3 cohort design is carried out to determine the recommended dose of E4 for the treatment of patients with advanced breast cancer. After completing the phase I part of the study (i.e. 4 weeks of treatment), patients receive further treatment for 8 weeks at their individual phase I dose level (phase IIa part of the study). Patients are treated for 12 weeks. Treatment continues after 12 weeks of treatment until the patient is withdrawn from the study either due to unacceptable adverse events (AEs) or disease progression. These patients are followed up according to clinical practice including radiological tumour assessments.
In total at least 9 patients with ER+ locally advanced and/or metastatic breast cancer having exhausted all treatment options are enrolled in the study. Patients are at least 5 years postmenopausal and have failed anti-estrogen treatment with tamoxifen and aromatase inhibitor because the cancer has become resistant to treatment with tamoxifen or aromatase inhibitor, or because the patient has discontinued treatment due to unacceptable side-effects. No treatment with fulvestrant is allowed within 6 months prior to the start of the E4 treatment.
• to assess quality of life in advanced breast cancer patients treated with E4, using specific questions on estrogen deficiency symptoms; • to assess preliminary anti-tumour response of E4 in patients with advanced breast cancer, according to RECIST 1.1 at the end of the study (i.e. after 12 weeks); • to assess the trough (Cmin) levels of E4 in patients with advanced breast cancer, by measuring E4 plasma concentrations before dosing at different time points during the study.
• to evaluate the safety profile of E4 in patients with advanced breast cancer by: • Performing routine laboratory parameters; • Performing physical examination; • Measuring vital signs; • Measuring electrocardiograms (ECGs); • Recording and monitoring of incidence and severity of clinical AEs and SAEs; • Radiological tumour assessments.
After completing the phase I part of the study (i.e. 4 weeks of treatment), patients receive further treatment for 8 weeks at their individual phase I dose level (phase IIa part of the study). The phase IIa part of the study includes explorative efficacy assessments to evaluate potential anti-tumour effects of E4 by RECIST criteria based on evaluation of pre- and end of treatment imaging.
Treatment is escalated in doses of 20 mg, 40 mg and 60 mg E4 across cohorts according to the 3+3 design until the non-tolerable dose is determined or the maximum anticipated dose (MAD) of 60 mg is reached. Patients are treated once daily with an oral administration of E4. […]

[3] = system: long term estrogen deprived MCF7 breast cancer cells (LTED cells); assay: Growth of long term estrogen deprived MCF7 cells, cell count analysis; format: cell-based; conditions: for Cell number per well: LTED cells, count on Day 7, control 5.36
Method: In order to assess the potential of an estetrol component to inhibit the growth of estrogen deprived breast cancer cells, in vitro studies in long term estrogen deprived MCF7 breast cancer cells (LTED cells) were conducted. LTED cells are deprived of estrogen, making them a suitable in vitro model to study drug effects in women who have been using estrogen activity suppressors for a long time.
LTED cells were plated in 6-well plates at a density of 30,000 cells per well. The cells were maintained in phenol red free IMEM with 5% charcoal stripped FBS (DCC-FBS). On Day 3, the medium was replaced with fresh phenol red free IMEM with 5% DCC-FBS. The cells were then exposed to 6 different concentrations of estetrol ranging from 10^−12 M to 10^−7 M or to ethanol as vehicle control. The final vehicle concentration was 0.1% ethanol for all experiments. Each treatment was made in duplicate.
On Day 5, the medium was changed and on Day 7 plates were subjected to a cell count analysis.

In the case of `C[C@]12CC[C@@H]3c4ccc(O)cc4CC[C@H]3[C@@H]1[C@@H](O)[C@@H](O)[C@@H]2O` [estetrol, estra-1,3,5(10)-triene-3,15α,16α,17β-tetrol], the “Binding to SHBG” value (SHBG) is listed as “does not bind to SHBG”, the Trough plasma level ([1]; 2 mg daily oral dose) is listed as 240 pg/mL and the Cmax plasma level ([1]; 10 mg daily oral dose) is listed as 9,500 pg/mL. For the same compound, the Trough plasma level ([1]; 20 mg daily oral dose) was 1,950 pg/mL, the Trough plasma level ([1]; 40 mg daily oral dose) was 5,070 pg/mL and the Tolerability ([1]; 2, 10, 20 and 40 mg daily oral) was “well tolerated”. The Cmax ([1]; 2 mg daily oral dose) was 1.3 ng/mL, the Cmax ([1]; 20 mg daily oral dose) was 23.5 ng/mL and the Cmax ([1]; 40 mg daily oral dose) was 82.7 ng/mL. The “Effect on quality of life (QOL)” value [2] was “advantageous effect”, the “Adverse event considered related to treatment” value ([2]; only one related AE, patient) was “breast tenderness with mild intensity” and the Tolerability of treatment ([2]; patient) was “tolerated the treatment very well”. The “Tumour burden during treatment” value ([2]; progressive disease at start) was “remained stable”, the “Cell number per well” value ([3]; 10^−7 M estetrol) was 0.49 ×10^5 and the “Cell number per well” value ([3]; 10^−8 M estetrol) was 0.59 ×10^5. For the same compound, the “Cell number per well” value ([3]; 10^−9 M estetrol) was 0.56 ×10^5, the “Cell number per well” value ([3]; 10^−10 M estetrol) was 0.63 ×10^5 and the “Cell number per well” value ([3]; 10^−11 M estetrol) was 3.62 ×10^5. For the same compound, the “Cell number per well” value ([3]; 10^−12 M estetrol) was 5.58 ×10^5, the “Inhibition of growth of LTED cells” value ([3]; 10^−12 M to 10^−7 M) was “able to inhibit the growth of LTED cells” and the “Concentration at which peak inhibition of LTED cell growth is observed” value ([3]; no further inhibition at higher concentrations) was 10^−10 M.

For `C[C@]12CC[C@@H]3c4ccc(O)cc4CC[C@H]3[C@@H]1CC[C@@H]2O` [estradiol, 17beta-estradiol, reference compound], the “Binding to SHBG (affinity)” value (SHBG; Hammond G L et al., Climacteric 2008) is listed as “about 40%”.
